Where “and” joins values, the source holds several entries; their conditions need not be identical. Identical values can stand only once. Inconclusive results and toxic doses are left out. Cut-off read from the data, not from the text of the source: active = T/C of 150% or more; inactive = T/C below 125%.
Tested on: L1210 leukemia ip in BDF1 mice, survival T/C
Experiment: NCI In Vivo Anticancer Drug Screen. Data for tumor model L1210 Leukemia (intraperitoneal) in B6D2F1 (BDF1) mice
Settings: endpoint: mean survival time, higher = longer survival
Procedure, shortened: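 Transplanted-tumor mice were given test agent; controls received vehicle only. Survival readings from the two groups were divided (treated over control).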

[1] = dose: 100.0 mg/kg/injection, schedule: Q01DX001 (ip), vehicle: Klucel (hydroxypropylcellulose) (HPC)
[2] = dose: 100.0 mg/kg/injection, schedule: Q01DX009 (ip), vehicle: Klucel (hydroxypropylcellulose) (HPC)
[3] = dose: 200.0 mg/kg/injection, schedule: Q01DX001 (ip), vehicle: Klucel (hydroxypropylcellulose) (HPC)
[4] = dose: 400.0 mg/kg/injection, schedule: Q01DX001 (ip), vehicle: Klucel (hydroxypropylcellulose) (HPC)
[5] = dose: 100.0 mg/kg/injection, schedule: Q01DX001 (ip), vehicle: saline
[6] = dose: 200.0 mg/kg/injection, schedule: Q01DX001 (ip), vehicle: saline
[7] = dose: 400.0 mg/kg/injection, schedule: Q01DX001 (ip), vehicle: saline
[8] = dose: 100.0 mg/kg/injection, schedule: Q01DX009 (ip), vehicle: saline
[9] = dose: 50.0 mg/kg/injection, schedule: Q01DX001 (ip), vehicle: carboxymethylcellulose (CMC)
[10] = dose: 50.0 mg/kg/injection, schedule: Q04DX003 (ip), vehicle: saline
[11] = dose: 100.0 mg/kg/injection, schedule: Q04DX002 (ip), vehicle: saline with Tween-80
[12] = dose: 200.0 mg/kg/injection, schedule: Q04DX002 (ip), vehicle: saline with Tween-80
[13] = dose: 400.0 mg/kg/injection, schedule: Q04DX002 (ip), vehicle: saline with Tween-80
[14] = dose: 100.0 mg/kg/injection, schedule: Q01DX009 (ip), vehicle: saline with Tween-80
[15] = dose: 200.0 mg/kg/injection, schedule: Q01DX009 (ip), vehicle: saline with Tween-80
[16] = dose: 400.0 mg/kg/injection, schedule: Q01DX009 (ip), vehicle: saline with Tween-80
[17] = dose: 100.0 mg/kg/injection, schedule: Q04DX003 (ip), vehicle: saline with Tween-80
[18] = dose: 100.0 mg/kg/injection, schedule: Q04DX003 (ip), vehicle: Klucel (hydroxypropylcellulose) (HPC)
[19] = dose: 200.0 mg/kg/injection, schedule: Q04DX003 (ip), vehicle: Klucel (hydroxypropylcellulose) (HPC)
[20] = dose: 400.0 mg/kg/injection, schedule: Q04DX003 (ip), vehicle: Klucel (hydroxypropylcellulose) (HPC)

Measured: T/C

CC(C)P(CP(=S)(c1ccccc1)c1ccccc1)c1ccccc1 (stereo not given)
inactive: dose: 100.0 mg/kg/injection, schedule: Q04DX003 (ip), vehicle: carboxymethylcellulose (CMC) 98 % of control | dose: 200.0 mg/kg/injection, schedule: Q04DX003 (ip), vehicle: carboxymethylcellulose (CMC) 100 % of control | dose: 400.0 mg/kg/injection, schedule: Q04DX003 (ip), vehicle: carboxymethylcellulose (CMC) 93 % of control

CSc1nccc(NN=C2CCCCC2)n1
inactive: [1] 98 % of control | [2] 96 % of control | [3] 94 % of control | dose: 200.0 mg/kg/injection, schedule: Q01DX009 (ip), vehicle: Klucel (hydroxypropylcellulose) (HPC) 98 % of control | [4] 91 % of control

Cn1c2c(c(=O)n(C)c1=O)NC1(N2)C(=O)Nc2ccccc21 (stereo not given)
inactive: [5] 101 % of control | [6] 98 % of control | [7] 101 % of control

CC1C(c2ccccc2)N1C(=O)Nc1ccccc1 (stereo not given)
inactive: [1] 93 % of control | [3] 96 % of control | [4] 98 % of control

Cc1ccc(S(=O)(=O)OCC(O)C2OCOC3COCOC32)cc1 (stereo not given)
inactive: [1] 97 % of control | [3] 101 % of control

S=Cc1cccc2c1CCCC2
inactive: [8] 111 % of control | dose: 200.0 mg/kg/injection, schedule: Q01DX009 (ip), vehicle: saline 100 % of control | dose: 400.0 mg/kg/injection, schedule: Q01DX009 (ip), vehicle: saline 97 % of control

Cc1[nH]c(=S)sc1C
inactive: [9] 100 % of control | dose: 50.0 mg/kg/injection, schedule: Q01DX009 (ip), vehicle: saline 97 % of control | [10] 92 % of control | dose: 100.0 mg/kg/injection, schedule: Q01DX001 (ip), vehicle: carboxymethylcellulose (CMC) 88 % of control | [8] 97 % of control | dose: 100.0 mg/kg/injection, schedule: Q04DX003 (ip), vehicle: saline 101 % of control | dose: 200.0 mg/kg/injection, schedule: Q04DX003 (ip), vehicle: saline 88 % of control

COc1cccc(C(=O)O)c1O
inactive: dose: 75.0 mg/kg/injection, schedule: Q01DX001 (ip), vehicle: acetone 101 % of control | dose: 150.0 mg/kg/injection, schedule: Q01DX001 (ip), vehicle: acetone 98 % of control

O=C(N/N=C/c1cccc2ccccc12)c1cccnc1
inactive: [2] 101 % of control

C1=CC2CC1CC2/C=N\N=C\C1CC2C=CC1C2 (stereo not given)
inactive: dose: 100.0 mg/kg/injection, schedule: Q04DX002 (ip), vehicle: Klucel (hydroxypropylcellulose) (HPC) 118 % of control | dose: 200.0 mg/kg/injection, schedule: Q04DX002 (ip), vehicle: Klucel (hydroxypropylcellulose) (HPC) 121 % of control

NC(=S)N/N=C1\C=CCCC1
inactive: [9] 111 % of control

CC1CC(C)(C)C/C1=N/Nc1ccc([N+](=O)[O-])cc1[N+](=O)[O-] (stereo not given)
inactive: [11] 97 % of control | [12] 94 % of control | [13] 87 % of control

CCOC(=N)CCCl
inactive: [14] 94 % of control | [15] 102 % of control | [16] 96 % of control

O=c1cc(CCl)[nH]nc1CCl
inactive: dose: 6.0 mg/kg/injection, schedule: Q04DX003 (ip), vehicle: saline with Tween-80 110 % of control | dose: 9.5 mg/kg/injection, schedule: Q04DX003 (ip), vehicle: saline with Tween-80 110 % of control | dose: 14.5 mg/kg/injection, schedule: Q04DX003 (ip), vehicle: saline with Tween-80 117 % of control | dose: 22.0 mg/kg/injection, schedule: Q04DX003 (ip), vehicle: saline with Tween-80 115 % of control and 124 % of control | dose: 25.0 mg/kg/injection, schedule: Q04DX003 (ip), vehicle: saline with Tween-80 115 % of control | dose: 33.0 mg/kg/injection, schedule: Q04DX003 (ip), vehicle: saline with Tween-80 124 % of control | dose: 75.0 mg/kg/injection, schedule: Q04DX003 (ip), vehicle: saline with Tween-80 113 % of control | [17] 111 % of control

O=C1c2ccccc2C2(c3ccccc3)C=NNC12c1ccccc1 (stereo not given)
inactive: [1] 103 % of control | [18] 106 % of control | [3] 98 % of control | [19] 97 % of control | [4] 95 % of control | [20] 103 % of control

CC1(C)OC(=O)C(C#N)C1c1ccccc1 (stereo not given)
inactive: [5] 93 % of control | [6] 91 % of control | [7] 96 % of control

O=C(Nc1cccc(Cl)c1)c1cc([N+](=O)[O-])ccc1O
inactive: dose: 5.0 mg/kg/injection, schedule: Q01DX001 (ip), vehicle: other 104 % of control | dose: 10.0 mg/kg/injection, schedule: Q01DX001 (ip), vehicle: other 104 % of control | dose: 10.0 mg/kg/injection, schedule: Q02DX010 (ip), vehicle: carboxymethylcellulose (CMC) 105 % of control | dose: 20.0 mg/kg/injection, schedule: Q01DX001 (ip), vehicle: other 104 % of control | dose: 20.0 mg/kg/injection, schedule: Q02DX010 (ip), vehicle: carboxymethylcellulose (CMC) 109 % of control | dose: 40.0 mg/kg/injection, schedule: Q01DX001 (ip), vehicle: other 101 % of control | dose: 40.0 mg/kg/injection, schedule: Q02DX010 (ip), vehicle: carboxymethylcellulose (CMC) 95 % of control | dose: 80.0 mg/kg/injection, schedule: Q01DX001 (ip), vehicle: other 95 % of control | dose: 80.0 mg/kg/injection, schedule: Q02DX010 (ip), vehicle: carboxymethylcellulose (CMC) 88 % of control | dose: 100.0 mg/kg/injection, schedule: Q01DX001 (ip), vehicle: other 86 % of control | dose: 200.0 mg/kg/injection, schedule: Q01DX001 (ip), vehicle: other 97 % of control | dose: 400.0 mg/kg/injection, schedule: Q01DX001 (ip), vehicle: other 114 % of control

CCC1CCC2C(CCC3(N(C)C)CCC(OC)C(OC)C23)C1 (stereo not given)
inactive: dose: 3.13 mg/kg/injection, schedule: Q01DX001 (ip), vehicle: saline with Tween-80 98 % of control | dose: 6.25 mg/kg/injection, schedule: Q01DX001 (ip), vehicle: saline with Tween-80 96 % of control | dose: 12.5 mg/kg/injection, schedule: Q01DX001 (ip), vehicle: saline with Tween-80 100 % of control

CCCCCCCNC(=S)NNC(=O)CCCC(=O)NNC(=S)NCCCCCCC
inactive: dose: 50.0 mg/kg/injection, schedule: Q01DX001 (ip), vehicle: saline 98 % of control | [5] 96 % of control | [6] 96 % of control | [7] 90 % of control

CCCCCCCCC(=O)N1CCCC(C)C1 (stereo not given)
inactive: dose: 100.0 mg/kg/injection, schedule: Q04DX002 (ip), vehicle: saline 104 % of control | dose: 200.0 mg/kg/injection, schedule: Q04DX002 (ip), vehicle: saline 117 % of control | dose: 400.0 mg/kg/injection, schedule: Q04DX002 (ip), vehicle: saline 101 % of control

Cc1cc(C)c(NC(=S)NC(=O)/C=C/c2ccccc2)c(C)c1
inactive: dose: 100.0 mg/kg/injection, schedule: Q01DX001 (ip), vehicle: saline with Tween-80 100 % of control | [14] 97 % of control and 89 % of control | [11] 101 % of control | [17] 92 % of control | dose: 200.0 mg/kg/injection, schedule: Q01DX001 (ip), vehicle: saline with Tween-80 92 % of control | [15] 101 % of control and 107 % of control | [12] 104 % of control | dose: 200.0 mg/kg/injection, schedule: Q04DX003 (ip), vehicle: saline with Tween-80 92 % of control | dose: 400.0 mg/kg/injection, schedule: Q01DX001 (ip), vehicle: saline with Tween-80 97 % of control | [16] 92 % of control and 96 % of control | [13] 87 % of control | dose: 400.0 mg/kg/injection, schedule: Q04DX003 (ip), vehicle: saline with Tween-80 91 % of control

NC(N)=N/N=C/c1ccc2c(c1)CCC2
inactive: dose: 12.5 mg/kg/injection, schedule: Q04DX003 (ip), vehicle: saline 101 % of control | dose: 25.0 mg/kg/injection, schedule: Q04DX003 (ip), vehicle: saline 97 % of control | [10] 97 % of control

Cc1cccc(CO)c1NC(=O)NCCCl
inactive: [18] 99 % of control | [19] 110 % of control | [20] 103 % of control
